# Data published in PubChem BioAssay (NCI).
#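 Each compound was tested at five concentrations against cells in 96-well plates for 48 hours. Here, GI50 denotes the concentration required for 50% inhibition of growth. Definition used: TGI = concentration required for complete inhibition of growth.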
# Columns and labels:
# Assay in all cases: NCI anticancer screen, dose series, 48 h
# DU-145 prostate = test system: DU-145 prostate
# 786-0 renal = test system: 786-0 renal
# HOP-62 NSCLC = test system: HOP-62 NSCLC
# OVCAR-5 ovarian = test system: OVCAR-5 ovarian
# KM12 colon = test system: KM12 colon
# SK-MEL-2 melanoma = test system: SK-MEL-2 melanoma
# T-47D breast = test system: T-47D breast
# SF-268 CNS = test system: SF-268 CNS
# RXF 393 renal = test system: RXF 393 renal
# SN12C renal = test system: SN12C renal
# EKVX NSCLC = test system: EKVX NSCLC
# OVCAR-8 ovarian = test system: OVCAR-8 ovarian
# COLO 205 colon = test system: COLO 205 colon
# CAKI-1 renal = test system: CAKI-1 renal
# NCI-H460 lung = test system: NCI-H460 lung
# NCI/ADR-RES ovarian = test system: NCI/ADR-RES ovarian
# NCI-H226 lung = test system: NCI-H226 lung
# TK-10 renal = test system: TK-10 renal
# SK-MEL-5 melanoma = test system: SK-MEL-5 melanoma
# HL-60(TB) leukemia = test system: HL-60(TB) leukemia
# A498 renal = test system: A498 renal
# MDA-MB-231 breast = test system: MDA-MB-231 breast
# UACC-62 melanoma = test system: UACC-62 melanoma
# M14 melanoma = test system: M14 melanoma
# SK-MEL-28 melanoma = test system: SK-MEL-28 melanoma
# SK-OV-3 ovarian = test system: SK-OV-3 ovarian
# MOLT-4 leukemia = test system: MOLT-4 leukemia
# NCI-H23 lung = test system: NCI-H23 lung
# PC-3 prostate = test system: PC-3 prostate
compound,measurement,setting,value
COC(=O)c1cc(NC(=O)CN(CCN(CC(=O)O)CC(=O)Nc2ccc(O)c(C(=O)OC)c2)CC(=O)O)ccc1O,TGI,DU-145 prostate,> 100 µM
same,GI50,786-0 renal,35.2 µM
same,TGI,786-0 renal,> 100 µM
same,GI50,HOP-62 NSCLC,42.3 µM
same,TGI,HOP-62 NSCLC,> 100 µM
same,GI50,OVCAR-5 ovarian,> 100 µM
same,TGI,OVCAR-5 ovarian,> 100 µM
same,GI50,KM12 colon,> 100 µM
same,TGI,KM12 colon,> 100 µM
same,GI50,SK-MEL-2 melanoma,> 100 µM
same,TGI,SK-MEL-2 melanoma,> 100 µM
same,GI50,T-47D breast,32.7 µM
same,TGI,T-47D breast,> 100 µM
same,GI50,SF-268 CNS,43.2 µM
same,TGI,SF-268 CNS,> 100 µM
same,GI50,RXF 393 renal,> 100 µM
same,TGI,RXF 393 renal,> 100 µM
same,GI50,SN12C renal,63.8 µM
same,TGI,SN12C renal,> 100 µM
same,GI50,EKVX NSCLC,> 100 µM
same,TGI,EKVX NSCLC,> 100 µM
same,GI50,OVCAR-8 ovarian,77.3 µM
same,TGI,OVCAR-8 ovarian,> 100 µM
same,GI50,COLO 205 colon,72 µM
same,TGI,COLO 205 colon,> 100 µM
same,GI50,CAKI-1 renal,32 µM
same,TGI,CAKI-1 renal,> 100 µM
same,GI50,NCI-H460 lung,28.3 µM
same,TGI,NCI-H460 lung,> 100 µM
same,GI50,NCI/ADR-RES ovarian,> 100 µM
same,TGI,NCI/ADR-RES ovarian,> 100 µM
same,GI50,NCI-H226 lung,> 100 µM
same,TGI,NCI-H226 lung,> 100 µM
same,GI50,TK-10 renal,> 100 µM
same,TGI,TK-10 renal,> 100 µM
same,GI50,SK-MEL-5 melanoma,47.2 µM
same,TGI,SK-MEL-5 melanoma,> 100 µM
same,GI50,HL-60(TB) leukemia,42.2 µM
same,TGI,HL-60(TB) leukemia,> 100 µM
same,GI50,A498 renal,71.7 µM
same,TGI,A498 renal,> 100 µM
same,GI50,MDA-MB-231 breast,> 100 µM
same,TGI,MDA-MB-231 breast,> 100 µM
same,GI50,UACC-62 melanoma,48.2 µM
same,TGI,UACC-62 melanoma,> 100 µM
same,GI50,M14 melanoma,41.9 µM
same,TGI,M14 melanoma,> 100 µM
same,GI50,SK-MEL-28 melanoma,> 100 µM
same,TGI,SK-MEL-28 melanoma,> 100 µM
same,GI50,SK-OV-3 ovarian,45.5 µM
same,TGI,SK-OV-3 ovarian,> 100 µM
same,GI50,MOLT-4 leukemia,28.5 µM
same,TGI,MOLT-4 leukemia,> 100 µM
same,GI50,NCI-H23 lung,78.9 µM
same,TGI,NCI-H23 lung,> 100 µM
same,GI50,PC-3 prostate,96.2 µM
same,TGI,PC-3 prostate,> 100 µM
